From ChEMBL document CHEMBL3885881, “DrugMatrix”

Organism: Rattus norvegicus
Test: DrugMatrix - Regimen: Daily Repeat
Type: toxicity, organism-based, Sprague-Dawley
Parameters: regimen Daily Repeat, gender Male, age 6-8 weeks
Details: in vivo, po, route oral GAVAGE, vehicle .5 % CMC; for ABSOLUTE BASOPHIL / ABSOLUTE EOSINOPHIL / ABSOLUTE LYMPHOCYTE / ABSOLUTE MONOCYTE / ABSOLUTE SEGMENTED NEUTROPHIL / BASOPHIL / EOSINOPHIL / ERYTHROCYTE COUNT / HEMATOCRIT / HEMOGLOBIN / LEUKOCYTE COUNT / LYMPHOCYTE / MEAN CORPUSCULAR HEMOGLOBIN / MEAN CORPUSCULAR HEMOGLOBIN CONCENTRATION / MEAN CORPUSCULAR VOLUME / MONOCYTE / NEUTROPHIL / NUCLEATED RED BLOOD CELLS / PLATELET COUNT: tissue Blood; for ALANINE AMINOTRANSFERASE / ALBUMIN / ALKALINE PHOSPHATASE / ASPARTATE AMINOTRANSFERASE / BLOOD UREA NITROGEN / CARBON DIOXIDE / CHLORIDE / CHOLESTEROL / CREATINE PHOSPHOKINASE / CREATININE / GLUCOSE / LACTATE DEHYDROGENASE / LIPASE / PHOSPHORUS / POTASSIUM / SODIUM / TOTAL BILIRUBIN / TOTAL PROTEIN / URIC ACID: tissue Plasma
[1] = 300 mg/kg, 72 h, dose level M1, time 3 day
[2] = 300 mg/kg, 120 h, dose level M1, time 5 day
[3] = 1100 mg/kg, 72 h, dose level High, time 3 day
[4] = 1100 mg/kg, 120 h, dose level High, time 5 day

Compound: COc1ccc(/C=C/C(=O)Nc2ccccc2C(=O)O)cc1OC
- ABSOLUTE BASOPHIL [1]: 0 CELLS/uL
- ABSOLUTE EOSINOPHIL [1]: 0 CELLS/uL
- ABSOLUTE LYMPHOCYTE [1]: 15435.67 CELLS/uL
- ABSOLUTE MONOCYTE [1]: 65.33 CELLS/uL
- ABSOLUTE SEGMENTED NEUTROPHIL [1]: 1499 CELLS/uL
- BASOPHIL [1]: 0%
- EOSINOPHIL [1]: 0%
- ERYTHROCYTE COUNT [1]: 5.52 x10E6/uL
- HEMATOCRIT [1]: 35.2%
- HEMOGLOBIN [1]: 13.97 G/DL
- LEUKOCYTE COUNT [1]: 17 x10E3/uL
- LYMPHOCYTE [1]: 90.67%
- MEAN CORPUSCULAR HEMOGLOBIN [1]: 25.3 pg
- MEAN CORPUSCULAR HEMOGLOBIN CONCENTRATION [1]: 39.67 G/DL
- MEAN CORPUSCULAR VOLUME [1]: 63.73 fL
- MONOCYTE [1]: 0.33%
- NEUTROPHIL [1]: 9%
- NUCLEATED RED BLOOD CELLS [1]: 0 /100WBC
- PLATELET COUNT [1]: 1287.67 x10E3/uL
- ALANINE AMINOTRANSFERASE [1]: 54.67 u/L
- ALBUMIN [1]: 4.27 G/DL
- ALKALINE PHOSPHATASE [1]: 401.67 u/L
- ASPARTATE AMINOTRANSFERASE [1]: 92.67 u/L
- BLOOD UREA NITROGEN [1]: 14 mg/dL
- CARBON DIOXIDE [1]: 24 mmol/L
- CHLORIDE [1]: 103 MEQ/L
- CHOLESTEROL [1]: 78.33 mg/dL
- CREATINE PHOSPHOKINASE [1]: 294 u/L
- CREATININE [1]: 0.15 mg/dL
- GLUCOSE [1]: 150.67 mg/dL
- LACTATE DEHYDROGENASE [1]: 445 u/L
- LIPASE [1]: 9 u/L
- PHOSPHORUS [1]: 13.6 mg/dL
- POTASSIUM [1]: 6.91 MEQ/L
- SODIUM [1]: 145.8 MEQ/L
- TOTAL BILIRUBIN [1]: 0.17 mg/dL
- TOTAL PROTEIN [1]: 6 G/DL
- URIC ACID [1]: 1.4 mg/dL
- ABSOLUTE BASOPHIL [2]: 0 CELLS/uL
- ABSOLUTE EOSINOPHIL [2]: 240.33 CELLS/uL
- ABSOLUTE LYMPHOCYTE [2]: 16960.67 CELLS/uL
- ABSOLUTE MONOCYTE [2]: 310.67 CELLS/uL
- ABSOLUTE SEGMENTED NEUTROPHIL [2]: 988.33 CELLS/uL
- BASOPHIL [2]: 0%
- EOSINOPHIL [2]: 1.33%
- ERYTHROCYTE COUNT [2]: 5.25 x10E6/uL
- HEMATOCRIT [2]: 33.97%
- HEMOGLOBIN [2]: 13.6 G/DL
- LEUKOCYTE COUNT [2]: 18.5 x10E3/uL
- LYMPHOCYTE [2]: 91.67%
- MEAN CORPUSCULAR HEMOGLOBIN [2]: 25.93 pg
- MEAN CORPUSCULAR HEMOGLOBIN CONCENTRATION [2]: 40.07 G/DL
- MEAN CORPUSCULAR VOLUME [2]: 64.73 fL
- MONOCYTE [2]: 1.67%
- NEUTROPHIL [2]: 5.33%
- NUCLEATED RED BLOOD CELLS [2]: 0 /100WBC
- PLATELET COUNT [2]: 1233.33 x10E3/uL
- ALANINE AMINOTRANSFERASE [2]: 54.33 u/L
- ALBUMIN [2]: 4.33 G/DL
- ALKALINE PHOSPHATASE [2]: 383 u/L
- ASPARTATE AMINOTRANSFERASE [2]: 84.33 u/L
- BLOOD UREA NITROGEN [2]: 18 mg/dL
- CARBON DIOXIDE [2]: 21 mmol/L
- CHLORIDE [2]: 105 MEQ/L
- CHOLESTEROL [2]: 63 mg/dL
- CREATINE PHOSPHOKINASE [2]: 256.33 u/L
- CREATININE [2]: 0.21 mg/dL
- GLUCOSE [2]: 156.33 mg/dL
- LACTATE DEHYDROGENASE [2]: 285 u/L
- LIPASE [2]: 8 u/L
- PHOSPHORUS [2]: 11.8 mg/dL
- POTASSIUM [2]: 6.72 MEQ/L
- SODIUM [2]: 146.17 MEQ/L
- TOTAL BILIRUBIN [2]: 0.2 mg/dL
- TOTAL PROTEIN [2]: 5.93 G/DL
- URIC ACID [2]: 1.3 mg/dL
- ABSOLUTE BASOPHIL [3]: 0 CELLS/uL
- ABSOLUTE EOSINOPHIL [3]: 138 CELLS/uL
- ABSOLUTE LYMPHOCYTE [3]: 17593 CELLS/uL
- ABSOLUTE MONOCYTE [3]: 218.33 CELLS/uL
- ABSOLUTE SEGMENTED NEUTROPHIL [3]: 4950.67 CELLS/uL
- BASOPHIL [3]: 0%
- EOSINOPHIL [3]: 0.67%
- ERYTHROCYTE COUNT [3]: 5.25 x10E6/uL
- HEMATOCRIT [3]: 33.23%
- HEMOGLOBIN [3]: 12.93 G/DL
- LEUKOCYTE COUNT [3]: 22.9 x10E3/uL
- LYMPHOCYTE [3]: 77%
- MEAN CORPUSCULAR HEMOGLOBIN [3]: 24.77 pg
- MEAN CORPUSCULAR HEMOGLOBIN CONCENTRATION [3]: 38.97 G/DL
- MEAN CORPUSCULAR VOLUME [3]: 63.5 fL
- MONOCYTE [3]: 1%
- NEUTROPHIL [3]: 21.33%
- NUCLEATED RED BLOOD CELLS [3]: 0 /100WBC
- PLATELET COUNT [3]: 1488 x10E3/uL
- ALANINE AMINOTRANSFERASE [3]: 95 u/L
- ALBUMIN [3]: 4.4 G/DL
- ALKALINE PHOSPHATASE [3]: 368 u/L
- ASPARTATE AMINOTRANSFERASE [3]: 112.67 u/L
- BLOOD UREA NITROGEN [3]: 18.33 mg/dL
- CARBON DIOXIDE [3]: 19.33 mmol/L
- CHLORIDE [3]: 104 MEQ/L
- CHOLESTEROL [3]: 47.33 mg/dL
- CREATINE PHOSPHOKINASE [3]: 547 u/L
- CREATININE [3]: 0.11 mg/dL
- GLUCOSE [3]: 149.67 mg/dL
- LACTATE DEHYDROGENASE [3]: 794 u/L
- LIPASE [3]: 10 u/L
- PHOSPHORUS [3]: 12 mg/dL
- POTASSIUM [3]: 5.56 MEQ/L
- SODIUM [3]: 142.2 MEQ/L
- TOTAL BILIRUBIN [3]: 0.27 mg/dL
- TOTAL PROTEIN [3]: 5.77 G/DL
- URIC ACID [3]: 1.67 mg/dL
- ABSOLUTE BASOPHIL [4]: 0 CELLS/uL
- ABSOLUTE EOSINOPHIL [4]: 0 CELLS/uL
- ABSOLUTE LYMPHOCYTE [4]: 8740 CELLS/uL
- ABSOLUTE MONOCYTE [4]: 0 CELLS/uL
- ABSOLUTE SEGMENTED NEUTROPHIL [4]: 2760 CELLS/uL
- BASOPHIL [4]: 0%
- EOSINOPHIL [4]: 0%
- ERYTHROCYTE COUNT [4]: 5.33 x10E6/uL
- HEMATOCRIT [4]: 31.3%
- HEMOGLOBIN [4]: 12.1 G/DL
- LEUKOCYTE COUNT [4]: 11.5 x10E3/uL
- LYMPHOCYTE [4]: 76%
- MEAN CORPUSCULAR HEMOGLOBIN [4]: 22.7 pg
- MEAN CORPUSCULAR HEMOGLOBIN CONCENTRATION [4]: 38.7 G/DL
- MEAN CORPUSCULAR VOLUME [4]: 58.8 fL
- MONOCYTE [4]: 0%
- NEUTROPHIL [4]: 24%
- NUCLEATED RED BLOOD CELLS [4]: 2 /100WBC
- PLATELET COUNT [4]: 1853 x10E3/uL
- ALANINE AMINOTRANSFERASE [4]: 113 u/L
- ALBUMIN [4]: 4.4 G/DL
- ALKALINE PHOSPHATASE [4]: 238 u/L
- ASPARTATE AMINOTRANSFERASE [4]: 86 u/L
- BLOOD UREA NITROGEN [4]: 17 mg/dL
- CARBON DIOXIDE [4]: 22 mmol/L
- CHLORIDE [4]: 102 MEQ/L
- CHOLESTEROL [4]: 58 mg/dL
- CREATINE PHOSPHOKINASE [4]: 287 u/L
- CREATININE [4]: 0.1 mg/dL
- GLUCOSE [4]: 153 mg/dL
- LACTATE DEHYDROGENASE [4]: 188 u/L
- LIPASE [4]: 9 u/L
- PHOSPHORUS [4]: 14.8 mg/dL
- POTASSIUM [4]: 5.92 MEQ/L
- SODIUM [4]: 141.9 MEQ/L
- TOTAL BILIRUBIN [4]: 0.2 mg/dL
- TOTAL PROTEIN [4]: 5.6 G/DL
- URIC ACID [4]: 2.1 mg/dL
